The values below are quoted from earlier work in patent US20070092561A1, “Water-Soluble Aspirin Composition” (priority 2005, published 2007).

Where two headings read alike, the source gives them in different places.

In the case of `CC(=O)Oc1ccccc1C(=O)O` [aspirin], the “occurrence of side-effects (gastric irritation, inflammation, heartburn, nausea, pain)” value (aspirin users) is 2-10% and the “occurrence of side-effects (gastric irritation, inflammation, heartburn, nausea, pain)” value (in chronic arthritis) is “about 25%”.
